Measurements taken from patent publication US12558348B2, “Bioactive phytochemicals” (Phytoquest Limited, priority 2019, dated 2026).

Columns and labels:
[1] = test system: sialidase (including NanH from T. forsythia); experiment: Sialidase assay with methylumbelliferyl-N-acetylneuraminic acid; format: biochemical
Procedure: Sialidase assays used 2.8 mM and 0.28 mM inhibitor (or water without inhibitor) and 2.5 nM sialidase (including NanH from T. forsythia) incubated in the presence of 0.1 mM methylumbelliferyl-N-acetyineuraminic acid, pH 7.2 in 20 mM sodium phosphate buffer. Reactions were stopped at 30 seconds and 60 seconds via addition of pH 10.5 60 mM sodium carbonate buffer. Release of fluorogenic methylumbelliferone (MU) was quantified by measuring fluorescence emission at 450 nm, excitation 350 nm. Percentage sialidase activity was expressed as the change in fluorescence between 30 seconds and 60 seconds compared to that of a reaction without inhibitor. Reactions were carried out in triplicate.

IL-1β = IL-1β ELISA in LPS stimulated THP-1 cells; format: cell-based, human; settings: for % reduction in IL-1 β levels: vs LPS control
Procedure: The cells in an 80% confluence culture flask were aspirated and centrifuged at 1500 rpm for 5 mins. The cell pellet was then resuspended in 1 ml of RPMI complete media and 1×10^5 cells/well seeded to each well of the 96 well microtiter plate. After 24 hrs incubation, PMA (10 ng/ml) was added to the 96 well plate to differentiate THP-1 cells to determine the TNF-α production, THP-1 cells were pretreated for 1 hr with idoBR1 or cucumber extract-Q-actin (batch no. […] Post incubation, the cell supernatant from each of the wells was aspirated into sterile micro centrifuge tubes and centrifuged at 1000 rpm for 2-3 mins. The cell supernatant was then used for evaluation of presence of cytokines using ELISA.
ELISA plates coated with antibodies for IL-12, IL-1β, or IL-10 (R&D Systems, USA) were used for the following study. To each well 50 μL of Assay Diluent RD1F was added after mixing well. 200 μL of sample (idoBR1 or extract), or control per well was added and covered with an adhesive strip. Following incubation for 2 hours at room temperature each well was aspirated and washed 4 times with Wash Buffer (400 μl). After the last wash, any remaining Wash Buffer was removed by aspirating or decanting. The plates were inverted and blotted against clean paper towels. To each well 200 μl of appropriate human conjugate was added and these then covered with a new adhesive strip and incubated for 1 hour at room temperature. The aspiration/wash was then repeated. 200 μL of Substrate Solution was then added to each well and further incubated for 20 minutes at room temperature protected from light. 50 μL of Stop Solution was added to each well. The colour in the wells was changed from blue to yellow. OD was measured within 30 minutes at 450 nm.

[2] = Oral availability: idoBR1 in urine after eating cucumbers (GC-MS); format: in vivo, human; settings: for excretion of idoBR1 in urine: volunteer, roughly 13 mg consumed in cucumbers
Procedure: Parisien pickling cucumbers (seeds purchased from Lidl 2013) were grown organically and three eaten at midday by each of one volunteer and one volunteer. […] The volunteers ate no Cucurbitaceae food for 15 hours prior to the experiment. Urine samples pre-consumption were collected over 3 hours as t=0 and then samples collected for 9 hours for the […] and 15 hours for the person. The 30 g cucumber sample was homogenised in 50% ethanol (aq) and after 15 hours extraction it was filtered and the idoBR1 fraction bound to cation exchange resin IR120 in the H+ form. After washing the column with water, the material displaced with 2M ammonia solution was dried (52.3 mg) and analysed by GC-MS after trimethylsilylation using Pierce TriSil. The remaining 51 mg of material then had 0.2 mg of castanospermine added for comparative quantification purposes. The entire urine samples were similarly treated using cation exchange resin except the material displaced by ammonia solution was run a second time through the same cation exchange resin (now in the ammonium form) to reduce strong bases (which will bind to IR120 in the ammonium form) and only the unretained material was kept. The urine idoBR1 fractions were dried and made up to 20 ml in water. 500 ul of each was sampled and 0.025 mg of castanospermine added.
This was carried out on a Perkin Elmer Turbomass Gold GCMS. The spectrum of the major peak at 10.33 mins matched the GCMS spectrum of authentic idoBR1, 900288 PhytoQuest Ltd, UK). The relative response factor was calculated between authentic BR1 (900125, PhytoQuest Ltd) and castanospermine is 1:2. Assuming the same response factor, the amount of idoBR1 was estimated as 1.5 mg in the 30 g sample which means that the volunteers consumed roughly 260/30×1 5 mg=13 mg of idoBR1.

O=C(O)[C@@H]1NC[C@H](O)[C@@H](O)[C@@H]1O [idoBR1, (2R,3R,4R,5S)-3,4,5-trihydroxypiperidine-2-carboxylic acid]
inhibition of the sialidase ([1]; 0.28 mM inhibitor): 42%
inhibition of the sialidase ([1]; 2.8 mM inhibitor): 36%
IL-1β (IL-1β; 12.5 μg/mL): 133.30 pg/mL
% reduction in IL-1 β levels (IL-1β; 12.5 μg/mL): 9.31%
IL-1β (IL-1β; 25 μg/mL): 127.63 pg/mL
% reduction in IL-1 β levels (IL-1β; 25 μg/mL): 13.17%
IL-1β (IL-1β; 50 μg/mL): 120.36 pg/mL
% reduction in IL-1 β levels (IL-1β; 50 μg/mL): 18.12%
IL-1β (IL-1β; 100 μg/mL): 111.60 pg/mL
% reduction in IL-1 β levels (IL-1β; 100 μg/mL): 24.07%
conjugation in the urine analysis ([2]; human urine): No obvious conjugation
oral availability ([2]; human, eaten cucumber): available orally
excretion of idoBR1 in urine ([2]; after 15 hours): approximately 2.4 mg
excretion of idoBR1 in urine ([2]; samples collected for 9 hours): approximately 2.1 mg
